According to patent US4148907A, “Stereoisomers of 1-(1'benzyl-2'pyrryl)-2-di-sec.-butylaminoethanol and pharmaceutical compositions comprising same” (Etablissement Viridis, priority 1976, dated 1979):

Columns and labels:
mice [1] = details: comparison values given under identical conditions (Pharmacological Research Communications 8, 111 (1976)); cited from earlier work
[2] = Analgesic activity, comparison in words (hot plate and tail flick data); type: in vivo; details: compared with VIMINOLO
Protocol: (§1) [α]436^20 (in methanol c= 2%): -48° C.±3° C. The analgesic activity (ED50) of isomers A and B has been determined via the hot plate test on mice (N/.B Eddy et Coll. J. Pharmacol. 98, 121, 1950) and via the "tail flick" test on rats (D'Amour and Smith; J. Pharmacol. 1941, 72, 74). The resulting values are set forth in the following Table and compared with the values given under identical conditions for VIMINOLO and the "R2 " Compound referred to hereinabove (Pharmacological Research Communications 8, 111 (1976)).

[3] = Therapeutic index (LD50/ED50 tail flick); type: in vivo; details: ratio of LD50/ED50, ED50 from the tail flick test
Source text: The superiority of new Compounds A and B is also evident from the therapeutic indexes which have been calculated as a ratio of LD50 /ED50' taking as the ED50 value that which is obtained by the tail flick test.

[4] = compared with other isomers, racemic compound or the disclosed class; cited from earlier work
[5] = Acute toxicity (LD50), method of Litchfield and Wilcoxson; details: in vivo, ip
Source text: The acute toxicity values (LD50) have been determined by the method of Litchfield and Wilcoxson (J. Pharmacol. 1949, 96, 99) both for the new compounds of this invention and for VIMINOLO and the "R2 " Compound.

rats [6] = details: comparison values given under identical conditions (Pharmacological Research Communications 8, 111 (1976)); cited from earlier work
mice [7] = test: Hot plate test on mice (analgesic activity, ED50); type: in vivo; details: Mus musculus, sc
Protocol: as §1

rats [8] = test: "tail flick" test on rats (analgesic activity, ED50); type: in vivo; details: Rattus norvegicus, sc
Protocol: as §1

Structure (SMILES)	ED50 hot plate s.c (mice [1]) [mg/kg]	analgesic activity relative to VIMINOLO [2]	T.I. (therapeutic index) [3]	analgesic activity (prior patents) [4]	LD50 [5] [mg/kg]	ED50 Tail Flick s.c. (rats [6]) [mg/kg]	ED50 (mice [7]) [mg/kg]	ED50 (rats [8]) [mg/kg]
CCC(C)N(CC(O)c1cccn1Cc1ccccc1Cl)C(C)CC (single isomer, unassigned) ["R2 " Compound]	1.15	surprisingly more active than VIMINOLO	324	much more active than the other isomers and also, more active than the corresponding racemic compound "VIMINOLO"	230	0.71	–	–
CC[C@@H](C)N(CC(O)c1cccn1Cc1ccccc1C(F)(F)F)[C@H](C)CC (single isomer, unassigned) [Isomer B]	–	–	942	–	358	–	0.6	0.38
CCC(C)N(CC(O)c1cccn1Cc1ccccc1Cl)C(C)CC (stereo not drawn) [VIMINOLO, 1-[1'(o-chlorobenzyl)-2'-pyrryl]-2-di-sec.-butylaminoethanol]	–	–	13.36	most active compound within the disclosed class of aminoethanols	167	12.5	–	–
CC[C@@H](C)N(CC(O)c1cccn1Cc1ccccc1F)[C@H](C)CC (single isomer, unassigned) [Isomer A]	–	–	872	–	384	–	0.65	0.44
